The results in this text go back to ChEMBL document CHEMBL1135802, “Pyrrolo[1,3]benzothiazepine-based atypical antipsychotic agents. Synthesis, structure-activity relationship, molecular modeling, and biological studies” (J Med Chem, 2002).

Data set [1] deals with T1, Adrenergic receptor alpha-2 (Rattus norvegicus, UniProt P22086+P19328+P22909).
T1 sequence (P22086 whole entry): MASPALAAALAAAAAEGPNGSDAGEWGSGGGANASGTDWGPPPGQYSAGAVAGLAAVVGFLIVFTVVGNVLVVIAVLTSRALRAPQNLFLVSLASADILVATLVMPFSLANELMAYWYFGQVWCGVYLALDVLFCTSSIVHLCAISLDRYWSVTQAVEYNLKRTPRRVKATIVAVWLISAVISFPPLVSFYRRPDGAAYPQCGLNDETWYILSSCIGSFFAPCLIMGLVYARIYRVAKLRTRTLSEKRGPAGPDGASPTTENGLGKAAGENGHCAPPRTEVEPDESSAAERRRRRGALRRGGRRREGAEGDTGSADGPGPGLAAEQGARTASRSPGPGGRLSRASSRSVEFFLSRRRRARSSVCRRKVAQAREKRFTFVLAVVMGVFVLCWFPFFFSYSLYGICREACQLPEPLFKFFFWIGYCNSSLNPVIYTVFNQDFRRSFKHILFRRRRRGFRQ
T1 sequence (P19328 whole entry): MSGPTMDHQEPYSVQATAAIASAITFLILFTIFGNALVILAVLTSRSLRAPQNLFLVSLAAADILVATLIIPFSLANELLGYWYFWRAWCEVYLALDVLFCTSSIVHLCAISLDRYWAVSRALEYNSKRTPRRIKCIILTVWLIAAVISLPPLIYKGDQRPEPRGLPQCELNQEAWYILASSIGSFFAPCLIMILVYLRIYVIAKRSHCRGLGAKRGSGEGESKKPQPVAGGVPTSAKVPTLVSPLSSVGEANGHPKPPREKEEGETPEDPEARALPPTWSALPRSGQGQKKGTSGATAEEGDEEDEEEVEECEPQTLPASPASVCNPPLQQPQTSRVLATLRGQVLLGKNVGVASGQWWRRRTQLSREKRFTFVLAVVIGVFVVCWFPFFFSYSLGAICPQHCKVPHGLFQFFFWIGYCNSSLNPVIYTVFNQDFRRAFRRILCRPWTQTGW
T1 sequence (P22909 whole entry): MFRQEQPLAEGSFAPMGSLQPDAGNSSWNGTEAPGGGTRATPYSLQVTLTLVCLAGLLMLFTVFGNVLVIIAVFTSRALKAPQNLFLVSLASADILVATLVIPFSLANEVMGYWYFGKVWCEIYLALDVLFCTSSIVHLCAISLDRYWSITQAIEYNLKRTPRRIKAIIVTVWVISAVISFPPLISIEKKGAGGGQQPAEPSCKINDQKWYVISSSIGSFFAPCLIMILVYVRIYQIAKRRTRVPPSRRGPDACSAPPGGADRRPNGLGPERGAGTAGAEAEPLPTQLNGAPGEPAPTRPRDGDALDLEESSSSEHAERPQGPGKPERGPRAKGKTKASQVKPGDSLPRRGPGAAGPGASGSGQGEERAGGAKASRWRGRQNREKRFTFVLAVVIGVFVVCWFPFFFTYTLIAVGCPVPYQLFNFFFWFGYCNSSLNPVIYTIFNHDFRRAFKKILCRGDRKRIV
It counts as tissue-based, Frontal cortex.
Description: Half-maximal inhibition of [3H]clonidine binding to Alpha-2 adrenergic receptor in rat frontal cortex homogenate

A further data set addresses D(3) dopamine receptor (Rattus norvegicus, UniProt P19020). Further details: species or system Tissue.
Data set [2] is filed under the species Mus musculus. Description: animal or person. It counts as functional. As to conditions: sc, route subcutaneous.
Data set [3] is filed under the species Mus musculus. Description: animal or person. It counts as functional. The note with it: po.
The species named for data set [4] is Mus musculus. Briefly: animal or person. It counts as functional. The note with it: sc, dose 0.19 mg/kg, route subcutaneous.
Data set [5] is filed under the species Mus musculus. Briefly: animal or person. It counts as functional. As to conditions: route oral.
The species named for data set [6] is Mus musculus. Description: animal or person. It counts as functional. As to conditions: sc, route subcutaneous. The source holds these as a separate data set.
Description: Ability to antagonize apomorphine-induced climbing in mice after administration of 0.10 mg/kg dose subcutaneously
The species named for data set [7] is Mus musculus. Description: animal or person. It counts as functional. The note with it: dose 7.9 mg/kg, route oral.
Data set [8] is filed under the species Rattus norvegicus. The note with it: in vivo.
Description: Area under curve (AUC) value of DOPAC level after first treatment (7.4 uM/Kg) in dialysates collected from rat striatum.
The species entered for data set [9] is Rattus norvegicus. As to conditions: in vivo. This is another data set of the same source.
Description: Area under curve (AUC) value of Dopamine level after total treatment in dialysates collected from rat striatum.
For data set [10], the species on record is Rattus norvegicus. The note with it: in vivo. This is another data set of the same source.
Description: Area under curve (AUC) value of HVA level after first treatment (7.4 uM/Kg) in dialysates collected from rat striatum.
Data set [11] is filed under the species Rattus norvegicus. The note with it: in vivo. This is another data set of the same source.
For data set [12], the species on record is Rattus norvegicus. The note with it: in vivo. This is another data set of the same source.
Description: Area under curve (AUC) value of HVA level after total treatment in dialysates collected from rat striatum.
Data set [13] is filed under the species Rattus norvegicus. As to conditions: in vivo. The source holds these as a separate data set.
The species entered for data set [14] is Rattus norvegicus. The note with it: in vivo. This is another data set of the same source.
Description: Area under curve (AUC) value of Dopamine level after first treatment (7.4 uM/Kg) in dialysates collected from rat striatum.
The species entered for data set [15] is Rattus norvegicus. As to conditions: in vivo. The source holds these as a separate data set.

D(3) dopamine receptor, sequence (P19020 whole entry): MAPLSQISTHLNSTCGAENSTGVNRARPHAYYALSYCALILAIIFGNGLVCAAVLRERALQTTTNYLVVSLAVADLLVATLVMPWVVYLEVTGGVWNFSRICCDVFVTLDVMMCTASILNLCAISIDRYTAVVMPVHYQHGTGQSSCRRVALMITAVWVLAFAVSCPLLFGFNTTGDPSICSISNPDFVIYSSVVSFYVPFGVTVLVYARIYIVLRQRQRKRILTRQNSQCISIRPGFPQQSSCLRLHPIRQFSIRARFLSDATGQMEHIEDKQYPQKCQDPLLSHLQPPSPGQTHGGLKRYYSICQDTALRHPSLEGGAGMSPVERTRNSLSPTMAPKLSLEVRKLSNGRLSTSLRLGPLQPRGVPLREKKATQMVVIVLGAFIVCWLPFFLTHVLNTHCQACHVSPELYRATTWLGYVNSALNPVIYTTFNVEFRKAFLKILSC
Description for D(3) dopamine receptor: Half-maximal inhibition of [3H]-7-OH-DPAT binding to Dopamine receptor D3 in rat tissue homogenate

As for `CN1CCN([C@@H]2Cn3cccc3Sc3ccc(Cl)cc32)CC1`, the results for the Ki (in [1]; on D(3) dopamine receptor) were 209 nM and 110 nM, respectively. Besides, the figures for the ED50 in the data set listed under Mus musculus [2], in the data set filed under Mus musculus [5] and in the data set listed under Mus musculus [6] were 45 µmol/kg, 14.3 µmol/kg and 0.24 µmol/kg, respectively. The ED50 at […] turned out to be 115 µmol/kg in the data set listed under Mus musculus [3], 0.48 µmol/kg in the data set filed under Mus musculus [4] and 19.5 µmol/kg in the data set listed under Mus musculus [7]. In addition, the AUC in the data set listed under Rattus norvegicus [8] is 145.4; in the data set listed under Rattus norvegicus [9], 156.3; in the data set filed under Rattus norvegicus [10], 133; in the data set listed under Rattus norvegicus [11], 193.8; in the data set filed under Rattus norvegicus [12], 163.4; in the data set filed under Rattus norvegicus [13] it was 20.35. The AUC in the data set filed under Rattus norvegicus [14] turned out to be 133.6; in the data set filed under Rattus norvegicus [15], 179.
